In data set [1] the target is T1, human AKR7A2 (Homo sapiens, UniProt O43488).
T1 construct: made in house; host or cells: E. coli BL21 (DE3) pLysS, pET-28a vector
Put plainly: Steady-state kinetics of AKR7A2 catalyzing 2-CBA in the absence or presence of azole drugs. Type of data set: biochemical. Conditions: for effect on catalytic efficiency (kcat/Km) of AKR7A2 catalyzing 2-CBA: compared to absence of drug; for kcat / increment of kcat/Km compared with the absence of the drug: substrate 2-CBA; for increment of kcat/Km compared with the absence of the drug: highest concentration of drug (50 μM; fluconazole 100 μM). As for the experimental part:
(§1) The steady-state kinetic parameters of AKR7A2 catalyzing 2-CBA were measured on a UV-2550 spectrophotometer (SHIMADZU, Japan) in the absence or presence of azole drugs. All drugs were dissolved with DMSO. Fluconazole, voriconazole, and ketoconazole were all made up of 2, 5, and 10 mM of mother solution. […] The steady-state kinetic assays were performed, as before, with some modifications. […] The reactions were initiated by the addition of 2-CBA and were monitored for 4 min at 25 °C. […] The kinetic data were fitted to the Michaelis-Menten equation [56, 57] using GraphPad Prism 8.0 (GraphPad Software, San Diego, CA, USA). The kinetic parameters Km and kcat were generated by the fitting. The resulting data were expressed as the mean ± standard deviation (SD) based on at least three independent experiments. Statistical significance was analyzed by ANOVA, and the significance was defined as * p < 0.05, ** p < 0.01, *** p < 0.001, or **** p < 0.0001.

Data set [2] has as its target T1, human AKR7A2. Put plainly: Biacore assays: binding of azole drugs and 2-CBA to immobilized AKR7A2. Conditions: 25 °C; for kd: 1:1 binding model; for Kd: KD calculated by kd/ka. As for the experimental part:
All experiments were performed on a Biacore 8k instrument (GE, Healthcare). According to the manufacturer’s handbook, about 1 mg/mL of freshly purified AKR7A2 protein was diluted with 10 mM sodium acetate buffer (pH 5.0) and was immobilized on a sensor chip CM5, via amine coupling, to a level of ~20,000 resonance units (RU). A reference surface was prepared in parallel with the addition of the buffer and was used for the subtraction of nonspecific binding. The analytes 2-CBA and azole drugs were diluted in a running buffer containing 2% DMSO. […] All samples were injected at a flow rate of 30 μL/min. The experimental sensorgrams were analyzed by Biacore 8k Evaluation Software Version 1.1.1.7442. The resulting curves were fitted with a 1:1 binding model, which gave the kinetic constants (ka, kd, and KD). All measurements were repeated in at least three independent experiments.

Details of data set [3]: method as in PMID 12942409. Conditions: patients, after administration; cited from earlier work.
For data set [4], the target named is T1, human AKR7A2. Nature of the data set: Steady-state kinetics of AKR7A2 with SSA as a substrate in the absence or presence of voriconazole. Format: biochemical. The following applies: for kcat: substrate SSA. As for the experimental part: as §1, with “The steady-state kinetic parameters of AKR7A2 catalyzing 2-CBA were measured on a UV-2550 spectrophotometer (SHIMADZU, Japan) in the absence or presence of azole drugs.” left out, “The reactions were initiated by the addition of 2-CBA and were monitored for 4 min at 25 °C.” left out

T1 sequence (O43488 39-359): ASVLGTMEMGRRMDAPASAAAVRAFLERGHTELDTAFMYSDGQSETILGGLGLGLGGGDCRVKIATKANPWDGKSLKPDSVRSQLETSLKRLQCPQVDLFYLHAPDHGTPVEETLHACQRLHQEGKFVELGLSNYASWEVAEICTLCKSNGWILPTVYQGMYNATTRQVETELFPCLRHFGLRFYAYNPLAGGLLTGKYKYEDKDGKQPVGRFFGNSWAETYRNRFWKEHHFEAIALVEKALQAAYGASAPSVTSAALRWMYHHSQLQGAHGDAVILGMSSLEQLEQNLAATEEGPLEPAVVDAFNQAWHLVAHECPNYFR

With `CC(=O)N1CCN(c2ccc(OCC3COC(Cn4ccnc4)(c4ccc(Cl)cc4Cl)O3)cc2)CC1` (centres unmarked) [ketoconazole], the “effect on catalytic efficiency (kcat/Km) of AKR7A2 catalyzing 2-CBA” value (“effect on catalytic efficiency (kcat/Km)” below) at human AKR7A2 [1] is on record as “did not significantly change”. Also, the figures for the turnover number (kcat) at human AKR7A2 [1] (drug concentration 20 μM), on human AKR7A2 [1] (drug concentration 50 μM) and at human AKR7A2 [1] (drug concentration 100 μM) were 1.302 ± 0.0268 s⁻¹, 1.271 ± 0.0303 s⁻¹ and 1.44 ± 0.0348 s⁻¹, respectively. Besides, at human AKR7A2 [2], the kd is 12.6 ± 1.91 (s^−1) × 10^2. The dissociation constant (Kd) at human AKR7A2 [2] is 1800 ± 438 µM.
On to `CC[C@@H]([C@H](C)O)n1ncn(-c2ccc(N3CCN(c4ccc(OC[C@@H]5CO[C@@](Cn6cncn6)(c6ccc(F)cc6F)C5)cc4)CC3)cc2)c1=O` [posaconazole], for which, on human AKR7A2 [1], the “effect on catalytic efficiency (kcat/Km)” value is on record as “enhanced significantly” and the “increment of kcat/Km compared with the absence of the drug” value was found to be 74%. At human AKR7A2 [1] (drug concentration 5 μM), the kcat is 1.239 ± 0.0212 s⁻¹. Also, the kcat at human AKR7A2 [1] (drug concentration 20 μM) was 1.273 ± 0.029 s⁻¹. On human AKR7A2 [1] (drug concentration 50 μM), the kcat amounted to 1.029 ± 0.0295 s⁻¹. Further, at human AKR7A2 [2], the kd amounted to 0.0298 ± 0.0059 s⁻¹ and the Kd is 1.35 ± 0.44 µM.
For the compound `OC(Cn1cncn1)(Cn1cncn1)c1ccc(F)cc1F` [fluconazole], at human AKR7A2 [1], the “effect on catalytic efficiency (kcat/Km)” value is listed as “enhanced significantly” and the “increment of kcat/Km compared with the absence of the drug” value is listed as 64%. Further, the kcat on human AKR7A2 [1] (drug concentration 20 μM) amounted to 1.195 ± 0.0173 s⁻¹. In addition, the kcat on human AKR7A2 [1] (drug concentration 50 μM) is 1.221 ± 0.0192 s⁻¹. Moreover, the kcat at human AKR7A2 [1] (drug concentration 100 μM) worked out at 1.072 ± 0.0185 s⁻¹. For the same compound, at human AKR7A2 [2], the kd turned out to be 0.0218 ± 0.0046 s⁻¹ and the dissociation constant Kd is 8.11 ± 4.83 µM.
In the case of `O=Cc1ccccc1C(=O)O` [2-CBA, 2-carboxybenzaldehyde], on human AKR7A2 [2], the kd is 0.0229 ± 0.0202 s⁻¹ and the Kd was 19.3 ± 14.9 µM.
Turning to `C[C@@H](c1ncncc1F)[C@](O)(Cn1cncn1)c1ccc(F)cc1F` [voriconazole], the cerebrospinal fluid concentrations in data set [3] is 0.08 to 3.93 µg/mL. Also, on human AKR7A2 [1], the “effect on catalytic efficiency (kcat/Km)” value was “did not significantly change”. For the same compound, the kcat at human AKR7A2 [1] (drug concentration 20 μM) came out at 1.126 ± 0.0163 s⁻¹; at human AKR7A2 [1] (drug concentration 50 μM), 1.237 ± 0.0168 s⁻¹; at human AKR7A2 [1] (drug concentration 100 μM), 1.258 ± 0.0248 s⁻¹; at human AKR7A2 [4] (drug concentration 5 μM), 1.297 ± 0.0377 s⁻¹; at human AKR7A2 [4] (drug concentration 20 μM), 1.306 ± 0.024 s⁻¹; on human AKR7A2 [4] (drug concentration 50 μM), 1.326 ± 0.0222 s⁻¹. Further, the “effect on catalysis of AKR7A2 with SSA as a substrate” value on human AKR7A2 [4] (concentration range of 0–50 µM) is “efficiently promote the catalysis”. The same compound gave a kd at human AKR7A2 [2] of 0.0168 ± 0.0072 s⁻¹. Moreover, at human AKR7A2 [2], the Kd was 2.98 ± 2.11 µM.
For `Clc1ccc(COC(Cn2ccnc2)c2ccc(Cl)cc2Cl)c(Cl)c1` (centres unmarked) [miconazole], on human AKR7A2 [1], the “effect on catalytic efficiency (kcat/Km)” value is on record as “enhanced significantly” and the “increment of kcat/Km compared with the absence of the drug” value turned out to be 67%. Further, at human AKR7A2 [1] (drug concentration 5 μM), the turnover number (kcat) turned out to be 1.205 ± 0.0228 s⁻¹. In addition, the kcat on human AKR7A2 [1] (drug concentration 20 μM) turned out to be 1.196 ± 0.0235 s⁻¹. For the same compound, the kcat at human AKR7A2 [1] (drug concentration 50 μM) was 1.236 ± 0.0292 s⁻¹. Further, at human AKR7A2 [2], the kd came out at 0.0536 ± 0.0017 s⁻¹ and the Kd was 84.9 ± 7.21 µM.
For the compound `Clc1ccc(COC(Cn2ccnc2)c2ccc(Cl)cc2Cl)cc1` (centres unmarked) [econazole], the “effect on catalytic efficiency (kcat/Km)” value on human AKR7A2 [1] is given as “did not significantly change”. The kcat on human AKR7A2 [1] (drug concentration 5 μM) came to 1.194 ± 0.0285 s⁻¹; on human AKR7A2 [1] (drug concentration 20 μM), 1.213 ± 0.0258 s⁻¹; on human AKR7A2 [1] (drug concentration 50 μM) it was 1.262 ± 0.0635 s⁻¹. The kd at human AKR7A2 [2] was 15.9 ± 0.72 (s^−1) × 10^2. For the same compound, the Kd on human AKR7A2 [2] is 565 ± 84 µM.
On to `CCC(C)n1ncn(-c2ccc(N3CCN(c4ccc(OCC5COC(Cn6cncn6)(c6ccc(Cl)cc6Cl)O5)cc4)CC3)cc2)c1=O` (centres unmarked) [itraconazole], for which, at human AKR7A2 [1], the “effect on catalytic efficiency (kcat/Km)” value was “enhanced significantly” and the “increment of kcat/Km compared with the absence of the drug” value is reported as 35%. Further, the kcat on human AKR7A2 [1] (drug concentration 5 μM) was found to be 1.342 ± 0.0237 s⁻¹. Also, the kcat on human AKR7A2 [1] (drug concentration 20 μM) stood at 1.219 ± 0.0167 s⁻¹. Moreover, the kcat on human AKR7A2 [1] (drug concentration 50 μM) stood at 1.107 ± 0.023 s⁻¹. At human AKR7A2 [2], the kd came out at 0.0263 ± 0.0035 s⁻¹ and the Kd was 0.81 ± 0.44 µM.
